“Also recorded” adds a separate entry of the source.
Assays:
HCT116/p53+/+ cells = experiment: cell cycle distribution by flow cytometry, HCT116/p53+/+; assay type: cell-based, human
Excerpt: It was investigated if the activation of DDR by FM19G11 caused a delay in the cycle progress through the G1/S phases in HCT116 tumor cells, as has been described for other DNA-damaging agents (.Lim, DS, Kim, ST, Xu, B, Maser, RS, Lin, J, Petrini, JH et al., (2000) ATM phosphorylates p95/nbs1 in an S-phase checkpoint pathway. Nature 404: 613-7.; Jazayeri, A, Falck, J, Lukas, C, Bartek, J, Smith, GC, Lukas, J et al., (2006) ATM- and cell cycle-dependent regulation of ATR in response to DNA double-strand breaks. Nat Cell Biol 8: 37-45; Liu, JS, Kuo, SR, Beerman, TA and Melendy, T, (2003) Induction of DNA damage responses by adozelesin is S phase-specific and dependent on active replication forks. Mol Cancer Ther 2: 41-7; Ranjan, P and Heintz, NH, (2006) S-phase arrest by reactive nitrogen species is bypassed by okadaic acid, an inhibitor of protein phosphatases PP1/PP2A. Free Radic Biol Med 40: 247-59.). The HCT116 p53+/+ and HCT116 p53-/- cells were exposed for 3 or 6 days to the carrier (DMSO) or to FM19G11 (0.5, 1, 5, 10 µM). […] (Figure 24).
A- The HCT116/p53+/+ cells and B-HCT116/p53-/- cells were exposed to different concentrations of FM19G11 (0.5, 1, 5, 10 µM) or carrier for 3 or 6 days to analyze the distribution of cells in the different cell cycle phases by means of flow cytometry. […]

MLH1 and MSH6 = experiment: Western blot of mismatch repair proteins and acetyllysine in C17.2 neural stem cells; assay type: cell-based, mouse; conditions: 500 nM; for expression of the repair proteins (MMRs: MLH1, MSH6): normoxia or hypoxia
Excerpt: According to the results obtained, the C17.2 neural stem cell subjected to hypoxia experienced repression in the DNA repair (mismatch repair, MMR) system. […] The monoclonal anti MLH1 and MSH6 antibodies were used in the analysis, Nx referring to normoxia and Hx to hypoxia.
The monoclonal antibodies anti-acetyllysine, anti-MLH1 and MSH6 as well as against beta-actin used as a loading control were used in the analysis; wherein Nx refers to Normoxia and Hx to hypoxia.

HT29 [1] = experiment: anchorage-independent growth in semisolid agar, HT29; assay type: cell-based, human; conditions: 0.5 µM, 10 days, versus DMSO, p ≤ 0.005
Description: (§1) Anchorage-independent cell growth is a study which allows predicting the tumorigenicity of tumor cells in vivo. Anchorage-independent cell growth studies were performed for HT29, HCT116/p53^+/+ and HCT116/p53^-/- cells in semisolid agar which were monitored daily to determine the efficiency of the formation of colonies in the presence of carrier (DMSO) or FM19G11. To that end, the starting material was 75 x 10^3 cells suspended in semisolid agar, which were maintained until 10 days later. […] A reduction of the formation of colonies in the HCT116/p53^-/- cells is not observed. The growth of colonies was quantified in three independent experiments by means of counting colonies in the 4 x magnification optical field of an inverted optical microscope.

HT29 [2] = experiment: clonicity assay, HT29; assay type: cell-based; conditions: Homo sapiens, HT-29; stimulated 72 hours, colonies counted after 10 days; read-out: survival IC50
Description: Clonicity assays were conducted to determine the toxicity of FM19G11 in p53-proficient (HT29 and HCT116/p53^+/+) and p53-deficient (HCT116/p53^-/-) tumor cells. Once the HT-29, HCT116/p53^+/+ and HCT116/p53^-/- cells were adhered to the culture plate, they were stimulated with increasing concentrations of FM19G11 (0.5, 1, 5, 10, 20, 50 µM) for 72 hours. After 10 days of stimulation, the number of colonies formed in the plates of treated and untreated cells was determined.
Results of the clonicity assays of HT29 human colon cancer cells, HCT116 cells treated with FM19G11 were monitored up to 10 after the treatment (Figure 28). The IC50 was determined by extrapolating the percentage with the concentration. FM19G11 was used at concentrations: 0.5, 1, 5, 10, 50, 100, 200 µM

HCT116/p53-/- = experiment: anchorage-independent growth in semisolid agar, HCT116/p53-/-; assay type: cell-based, human; conditions: 0.5 µM, 10 days, versus DMSO
Description: as §1

Structure (SMILES): Cc1ccc(C(=O)COC(=O)c2cccc(NC(=O)c3ccc([N+](=O)[O-])cc3[N+](=O)[O-])c2)cc1 [FM19G11, 2-oxo-2-(p-tolyl)ethyl 3-((2,4-dinitro)benzamido)benzoate]
- G1/S phase cycle arrest (HCT116/p53+/+ cells; 5 or 10 µM, after 72 hours, more evident after 6 days): caused G1/S phase cycle arrest
- S phase cycle arrest on simultaneous incubation with rapamycin (HCT116/p53+/+ cells; FM19G11 (10 µM) + rapamycin (100 pmol)): prevented
- overall degree of acetylation of different proteins (anti-acetyllysine) (MLH1 and MSH6): increases the overall degree of acetylation
- expression of the repair proteins (MMRs: MLH1, MSH6) (MLH1 and MSH6): capable of recovering the expression of the MMRs more effectively than TSA; also recorded: recovered
- expression of the repair proteins (MMRs: MLH1, MSH6) (MLH1 and MSH6; listed as 19G11): capable of reestablishing the expression
- growth of colonies in semisolid agar (HT29 [1]): significant decrease
- IC50 (HT29 [2]): 1000 nM
- reduction of the formation of colonies in semisolid agar (HCT116/p53-/-): not observed

Reference: patent EP2292587A1, “PHARMACEUTICAL COMPOSITION FOR INHIBITING THE TRANSCRIPTION FACTOR INDUCIBLE BY HYPOXIA, MODULATORS OF PATHOLOGICAL PROCESSES OF ANGIOGENESIS, ONCOGENESIS, INFLAMMATION, APOPTOSIS, AND CELLULAR THERAPY” (Fundacion De La Comunidad Valenciana Centro De …, priority 2008, dated 2009)
